Data on four compounds can be found in PubChem BioAssay AID248 (DTP/NCI, 2004).

The subject of the experiment is L1210 leukemia ip in BDF1 mice, survival T/C. As to the kind of experiment: NCI In Vivo Anticancer Drug Screen. Data for tumor model L1210 Leukemia (intraperitoneal) in B6D2F1 (BDF1) mice. The settings on record: higher = longer survival. The method, boiled down:
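Read-out is survival time, reported as the treated-group measurement over the vehicle-control measurement.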

The mark [1] stands for this setting: endpoint: mean survival time, dose: 100.0 mg/kg/injection, schedule: Q01DX001 (ip), vehicle: saline.
Where [2] appears, read: endpoint: mean survival time, dose: 100.0 mg/kg/injection, schedule: Q04DX003 (ip), vehicle: saline.
[3] abbreviates: endpoint: mean survival time, dose: 200.0 mg/kg/injection, schedule: Q01DX001 (ip), vehicle: saline.
Where [4] appears, read: endpoint: mean survival time, dose: 200.0 mg/kg/injection, schedule: Q04DX003 (ip), vehicle: saline.
[5] abbreviates: endpoint: mean survival time, dose: 400.0 mg/kg/injection, schedule: Q01DX001 (ip), vehicle: saline.
Setting [6] is: endpoint: mean survival time, dose: 400.0 mg/kg/injection, schedule: Q01DX009 (ip), vehicle: saline.

“And” between values parts separate entries of the source, which are not always exact repeats. Identical values can stand only once. Toxic doses and inconclusive results are not listed.

Take `O=C1C=CN(C2OC(CO)C(O)C2O)C(=O)C1` (stereo not drawn): the T/C is, setting by setting: (endpoint: mean survival time, dose: 0.75 mg/kg/injection, schedule: Q01DX009 (ip), vehicle: saline) 117 % of control; (endpoint: mean survival time, dose: 1.5 mg/kg/injection, schedule: Q01DX009 (ip), vehicle: saline) 117 % of control; (endpoint: mean survival time, dose: 4.8 mg/kg/injection, schedule: Q01DX009 (ip), vehicle: saline) 120 % of control; (endpoint: mean survival time, dose: 7.8 mg/kg/injection, schedule: Q01DX005 (ip), vehicle: other) 107 % of control; (endpoint: mean survival time, dose: 15.75 mg/kg/injection, schedule: Q01DX005 (ip), vehicle: other) 116 % of control; (endpoint: mean survival time, dose: 22.0 mg/kg/injection, schedule: Q01DX009 (ip), vehicle: saline) 124 % of control. The T/C by setting is: (endpoint: mean survival time, dose: 31.25 mg/kg/injection, schedule: Q01DX005 (ip), vehicle: other) 123 % of control; (endpoint: mean survival time, dose: 62.5 mg/kg/injection, schedule: Q01DX005 (ip), vehicle: other) 124 % of control; under setting [1], 105 % of control; under setting [2], 108 % of control; (endpoint: mean survival time, dose: 112.0 mg/kg/injection, schedule: Q03HX024 (ip), vehicle: saline) 176 % of control; under setting [3], 114 % of control. For the same compound, the T/C was 119 % of control under setting [4]; 105 % of control under setting [5]; 115 % of control under setting [6]; 116 % of control (endpoint: mean survival time, dose: 400.0 mg/kg/injection, schedule: Q04DX003 (ip), vehicle: saline); 122 % of control (endpoint: median survival time, dose: 6.25 mg/kg/injection, schedule: Q01DX009 (ip), vehicle: saline); 122 % of control (endpoint: median survival time, dose: 12.5 mg/kg/injection, schedule: Q01DX009 (ip), vehicle: saline). Also, the T/C is 105 % of control (endpoint: median survival time, dose: 16.0 mg/kg/injection, schedule: Q03HX008 (ip), vehicle: saline); 103 % of control (endpoint: median survival time, dose: 16.0 mg/kg/injection, schedule: Q03HX016 (ip), vehicle: saline); 150 % of control (endpoint: median survival time, dose: 26.0 mg/kg/injection, schedule: Q03HX024 (ip), vehicle: saline); 118 % of control (endpoint: median survival time, dose: 32.0 mg/kg/injection, schedule: Q01DX009 (sc), vehicle: saline); 106 % of control (endpoint: median survival time, dose: 32.0 mg/kg/injection, schedule: Q03HX008 (ip), vehicle: saline); 101 % of control (endpoint: median survival time, dose: 32.0 mg/kg/injection, schedule: Q03HX016 (ip), vehicle: saline). In addition, the T/C is 123 % of control (endpoint: median survival time, dose: 64.0 mg/kg/injection, schedule: Q01DX009 (sc), vehicle: saline); 103 % of control (endpoint: median survival time, dose: 64.0 mg/kg/injection, schedule: Q03HX008 (ip), vehicle: saline); 103 % of control (endpoint: median survival time, dose: 64.0 mg/kg/injection, schedule: Q03HX016 (ip), vehicle: saline); 103 % of control (endpoint: median survival time, dose: 64.0 mg/kg/injection, schedule: Q04DX003 (ip), vehicle: saline); 116 % of control (endpoint: median survival time, dose: 74.0 mg/kg/injection, schedule: Q01DX009 (oral), vehicle: saline); 100 % of control (endpoint: median survival time, dose: 110.0 mg/kg/injection, schedule: Q01DX009 (oral), vehicle: saline). The T/C was 98 % of control (endpoint: median survival time, dose: 128.0 mg/kg/injection, schedule: Q01DX001 (ip), vehicle: saline); 156 % of control (endpoint: median survival time, dose: 128.0 mg/kg/injection, schedule: Q01DX009 (ip), vehicle: saline); 111 % of control (endpoint: median survival time, dose: 128.0 mg/kg/injection, schedule: Q01DX009 (oral), vehicle: saline); 108 % of control (endpoint: median survival time, dose: 128.0 mg/kg/injection, schedule: Q03HX008 (ip), vehicle: saline); 110 % of control (endpoint: median survival time, dose: 128.0 mg/kg/injection, schedule: Q03HX016 (ip), vehicle: saline); 104 % of control (endpoint: median survival time, dose: 128.0 mg/kg/injection, schedule: Q04DX003 (ip), vehicle: saline). The T/C (endpoint: median survival time, dose: 128.0 mg/kg/injection, schedule: Q04DX003 (oral), vehicle: saline) was 104 % of control and 110 % of control; the T/C (endpoint: median survival time, dose: 128.0 mg/kg/injection, schedule: Q04DX003 (sc), vehicle: saline) is 112 % of control; the T/C (endpoint: median survival time, dose: 128.0 mg/kg/injection, schedule: Q08DX002 (ip), vehicle: saline) is 94 % of control; the T/C (endpoint: median survival time, dose: 164.0 mg/kg/injection, schedule: Q01DX009 (oral), vehicle: saline) is 111 % of control; the T/C (endpoint: median survival time, dose: 170.0 mg/kg/injection, schedule: Q04DX003 (ip), vehicle: saline) is 111 % of control; the T/C (endpoint: median survival time, dose: 248.0 mg/kg/injection, schedule: Q01DX009 (oral), vehicle: saline) is 100 % of control. Also, the T/C by setting is: (endpoint: median survival time, dose: 256.0 mg/kg/injection, schedule: Q01DX001 (ip), vehicle: saline) 105 % of control; (endpoint: median survival time, dose: 256.0 mg/kg/injection, schedule: Q01DX009 (ip), vehicle: saline) 180 % of control; (endpoint: median survival time, dose: 256.0 mg/kg/injection, schedule: Q01DX009 (oral), vehicle: saline) 107 % of control and 110 % of control; (endpoint: median survival time, dose: 256.0 mg/kg/injection, schedule: Q03HX008 (ip), vehicle: saline) 116 % of control; (endpoint: median survival time, dose: 256.0 mg/kg/injection, schedule: Q03HX016 (ip), vehicle: saline) 122 % of control; (endpoint: median survival time, dose: 256.0 mg/kg/injection, schedule: Q04DX003 (ip), vehicle: saline) 112 % of control. For the same compound, the T/C is, setting by setting: (endpoint: median survival time, dose: 256.0 mg/kg/injection, schedule: Q04DX003 (oral), vehicle: saline) 117 % of control and 123 % of control; (endpoint: median survival time, dose: 256.0 mg/kg/injection, schedule: Q04DX003 (sc), vehicle: saline) 120 % of control; (endpoint: median survival time, dose: 256.0 mg/kg/injection, schedule: Q08DX002 (ip), vehicle: saline) 97 % of control; (endpoint: median survival time, dose: 260.0 mg/kg/injection, schedule: Q04DX003 (ip), vehicle: saline) 111 % of control; (endpoint: median survival time, dose: 400.0 mg/kg/injection, schedule: Q01DX009 (ip), vehicle: saline) 155 % of control; (endpoint: median survival time, dose: 512.0 mg/kg/injection, schedule: Q01DX001 (ip), vehicle: saline) 100 % of control. For the same compound, the T/C was 97 % of control and 100 % of control (endpoint: median survival time, dose: 512.0 mg/kg/injection, schedule: Q01DX009 (oral), vehicle: saline); 122 % of control (endpoint: median survival time, dose: 512.0 mg/kg/injection, schedule: Q04DX003 (ip), vehicle: saline); 105 % of control (endpoint: median survival time, dose: 512.0 mg/kg/injection, schedule: Q04DX003 (oral), vehicle: saline); 119 % of control (endpoint: median survival time, dose: 512.0 mg/kg/injection, schedule: Q04DX003 (sc), vehicle: saline); 95 % of control (endpoint: median survival time, dose: 512.0 mg/kg/injection, schedule: Q08DX002 (ip), vehicle: saline); 111 % of control (endpoint: median survival time, dose: 580.0 mg/kg/injection, schedule: Q04DX003 (ip), vehicle: saline). Besides, the T/C by setting is: (endpoint: median survival time, dose: 600.0 mg/kg/injection, schedule: Q01DX009 (ip), vehicle: saline) 110 % of control; (endpoint: median survival time, dose: 1024.0 mg/kg/injection, schedule: Q01DX001 (ip), vehicle: saline) 101 % of control; (endpoint: median survival time, dose: 1024.0 mg/kg/injection, schedule: Q01DX009 (oral), vehicle: saline) 95 % of control; (endpoint: median survival time, dose: 1024.0 mg/kg/injection, schedule: Q08DX002 (ip), vehicle: saline) 106 % of control; (endpoint: median survival time, dose: 2048.0 mg/kg/injection, schedule: Q01DX001 (ip), vehicle: saline) 111 % of control; (endpoint: median survival time, dose: 2048.0 mg/kg/injection, schedule: Q08DX002 (ip), vehicle: saline) 119 % of control.
For `ClC1=C(Cl)C2(Cl)C(Cl)CC1(Cl)C2(Cl)Cl` (stereo not drawn), the T/C runs as follows: under setting [1], 97 % of control; under setting [2], 110 % of control; under setting [3], 90 % of control; under setting [4], 96 % of control; under setting [5], 97 % of control.
On to `COC(=O)CCC(NC(=O)C1CCN(C(=O)OCc2ccccc2)CC1)C(=O)OC` (stereo not drawn), for which the T/C runs as follows: under setting [1], 99 % of control; (endpoint: mean survival time, dose: 100.0 mg/kg/injection, schedule: Q01DX009 (ip), vehicle: saline) 103 % of control; (endpoint: mean survival time, dose: 100.0 mg/kg/injection, schedule: Q04DX003 (ip), vehicle: acetone) 95 % of control; under setting [3], 100 % of control; (endpoint: mean survival time, dose: 200.0 mg/kg/injection, schedule: Q01DX009 (ip), vehicle: saline) 102 % of control; (endpoint: mean survival time, dose: 200.0 mg/kg/injection, schedule: Q04DX003 (ip), vehicle: acetone) 98 % of control. Besides, the T/C under setting [5] is 94 % of control; the T/C under setting [6] is 103 % of control; the T/C (endpoint: mean survival time, dose: 400.0 mg/kg/injection, schedule: Q04DX003 (ip), vehicle: acetone) is 98 % of control.
With `NCCP(=O)(O)c1ccccc1`, the T/C runs as follows: under setting [1], 94 % of control; under setting [3], 93 % of control; under setting [5], 93 % of control.
